Earlier results, collected in patent publication EP0409903B1, “PROCESS FOR PREPARING POLYUNSATURATED FATTY ACIDS” (STAROIL LIMITED, priority 1988, dated 1989).

Settings: ingestion of DHA in ester form and/or as the free acid; Hiroi at al., 1978

DHA and EPA levels in plasmatic phospholipids: significantly increases
SMILES: CC/C=C\C/C=C\C/C=C\C/C=C\C/C=C\C/C=C\CCC(=O)O [DHA, docosahexaenoic acid]
